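Where inhibition never reached the appropriate level, the endpoint shown equals the highest concentration tested. Otherwise, values were interpolated linearly from a five-concentration, 48-hour dose response in 96-well plates. GI50: concentration for 50% inhibition of growth. TGI: concentration producing complete growth inhibition.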
How the values were obtained:
Experiment in all cases: NCI anticancer screen, dose series, 48 h
[1] = system: NCI-H23 lung
[2] = system: M14 melanoma
[3] = system: NCI-H522 lung
[4] = system: SK-OV-3 ovarian
[5] = system: OVCAR-8 ovarian
[6] = system: CCRF-CEM leukemia
[7] = system: OVCAR-3 ovarian
[8] = system: CAKI-1 renal
[9] = system: NCI-H460 lung
[10] = system: HL-60(TB) leukemia
[11] = system: NCI-H226 lung
[12] = system: 786-0 renal
[13] = system: SF-268 CNS
[14] = system: A498 renal
[15] = system: BT-549 breast
[16] = system: RXF 393 renal
[17] = system: PC-3 prostate
[18] = system: UO-31 renal
[19] = system: HOP-92 NSCLC
[20] = system: UACC-62 melanoma
[21] = system: SK-MEL-2 melanoma
[22] = system: SK-MEL-5 melanoma
[23] = system: SK-MEL-28 melanoma
[24] = system: SNB-19 CNS
[25] = system: IGROV1 ovarian
[26] = system: SR leukemia
[27] = system: TK-10 renal
[28] = system: SF-295 CNS

**Q.** `Cc1c(C(=O)N/N=C/c2ccc(O)cc2)nnn1-c1ccnc2c(C(F)(F)F)cccc12` was tested. Which TGI [1] did it give?
**A.** The TGI was greater than 100 µM.

**Q.** What about the GI50 [2] of the same compound?
**A.** The GI50 was greater than 100 µM.

**Q.** What about the TGI [2] of the same compound?
**A.** The TGI was greater than 100 µM.

**Q.** What about the GI50 [3] of the same compound?
**A.** The GI50 was 49.9 µM.

**Q.** And the TGI [3]?
**A.** The TGI was greater than 100 µM.

**Q.** And the GI50 [4]?
**A.** The GI50 was 27.2 µM.

**Q.** And the TGI [4]?
**A.** Its TGI is 76.7 µM.

**Q.** What about the GI50 [5] of the same compound?
**A.** The GI50 was 21.5 µM.

**Q.** And the TGI [5]?
**A.** The TGI was greater than 100 µM.

**Q.** And the GI50 [6]?
**A.** Its GI50 is greater than 100 µM.

**Q.** What about the TGI [6] of the same compound?
**A.** Its TGI is greater than 100 µM.

**Q.** What about the GI50 [7] of the same compound?
**A.** Its GI50 is greater than 100 µM.

**Q.** What about the TGI [7] of the same compound?
**A.** Its TGI is greater than 100 µM.

**Q.** And the GI50 [8]?
**A.** Its GI50 is greater than 100 µM.

**Q.** And the TGI [8]?
**A.** Its TGI is greater than 100 µM.

**Q.** And the GI50 [9]?
**A.** Its GI50 is greater than 100 µM.

**Q.** And the TGI [9]?
**A.** The TGI was greater than 100 µM.

**Q.** What about the GI50 [10] of the same compound?
**A.** Its GI50 is greater than 100 µM.

**Q.** What about the TGI [10] of the same compound?
**A.** The TGI was greater than 100 µM.

**Q.** What about the GI50 [11] of the same compound?
**A.** Its GI50 is 36.9 µM.

**Q.** And the TGI [11]?
**A.** The TGI was greater than 100 µM.

**Q.** What about the GI50 [12] of the same compound?
**A.** Its GI50 is 44.4 µM.

**Q.** And the TGI [12]?
**A.** The TGI was greater than 100 µM.

**Q.** And the GI50 [13]?
**A.** Its GI50 is 64.4 µM.

**Q.** What about the TGI [13] of the same compound?
**A.** Its TGI is greater than 100 µM.

**Q.** And the GI50 [14]?
**A.** The GI50 was 36.6 µM.

**Q.** And the TGI [14]?
**A.** Its TGI is greater than 100 µM.

**Q.** What about the GI50 [15] of the same compound?
**A.** Its GI50 is 41.6 µM.

**Q.** What about the TGI [15] of the same compound?
**A.** Its TGI is greater than 100 µM.

**Q.** What about the GI50 [16] of the same compound?
**A.** Its GI50 is 5.22 µM.

**Q.** What about the TGI [16] of the same compound?
**A.** Its TGI is 34.6 µM.

**Q.** And the GI50 [17]?
**A.** The GI50 was greater than 100 µM.

**Q.** And the TGI [17]?
**A.** The TGI was greater than 100 µM.

**Q.** What about the GI50 [18] of the same compound?
**A.** Its GI50 is greater than 100 µM.

**Q.** What about the TGI [18] of the same compound?
**A.** The TGI was greater than 100 µM.

**Q.** What about the GI50 [19] of the same compound?
**A.** Its GI50 is 17 µM.

**Q.** And the TGI [19]?
**A.** The TGI was 50.4 µM.

**Q.** And the GI50 [20]?
**A.** The GI50 was greater than 100 µM.

**Q.** What about the TGI [20] of the same compound?
**A.** The TGI was greater than 100 µM.

**Q.** And the GI50 [21]?
**A.** The GI50 was greater than 100 µM.

**Q.** And the TGI [21]?
**A.** Its TGI is greater than 100 µM.

**Q.** And the GI50 [22]?
**A.** The GI50 was greater than 100 µM.

**Q.** What about the TGI [22] of the same compound?
**A.** The TGI was greater than 100 µM.

**Q.** What about the GI50 [23] of the same compound?
**A.** Its GI50 is greater than 100 µM.

**Q.** What about the TGI [23] of the same compound?
**A.** Its TGI is greater than 100 µM.

**Q.** What about the GI50 [24] of the same compound?
**A.** Its GI50 is 23.5 µM.

**Q.** And the TGI [24]?
**A.** The TGI was 76.7 µM.

**Q.** And the GI50 [25]?
**A.** Its GI50 is greater than 100 µM.

**Q.** What about the TGI [25] of the same compound?
**A.** The TGI was greater than 100 µM.

**Q.** What about the GI50 [26] of the same compound?
**A.** The GI50 was 44.1 µM.

**Q.** What about the TGI [26] of the same compound?
**A.** Its TGI is greater than 100 µM.

**Q.** And the GI50 [27]?
**A.** The GI50 was greater than 100 µM.

**Q.** And the TGI [27]?
**A.** Its TGI is greater than 100 µM.

**Q.** And the GI50 [28]?
**A.** Its GI50 is 22 µM.

**Q.** What about the TGI [28] of the same compound?
**A.** The TGI was greater than 100 µM.

— PubChem BioAssay (NCI)
